Test results published in patent publication US11206827B2, “Herbicidal composition comprising cinmethylin and specific quinolinecarboxylic acids” (BASF Agro B.V., priority 2015, dated 2021).

Columns and labels:
Format in all cases: in vivo
Conditions in all cases: solo application, 20 DAT
[1] = test system: Papaver rhoeas; assay: Greenhouse pre-emergence herbicidal activity, PAPRH
Procedure: (§1) The test plants have been seeded, separately for each species, in plastic containers in sandy loamy soil containing 5% of organic matter.
(§2) The containers were irrigated gently to promote germination and growth and subsequently covered with transparent plastic hoods until the plants had rooted.
(§3) The plants have been cultivated due to their individual requirements at 10-25° C. and 20-35° C. The plants were irrigated due to their necessity.
(§4) The racemic mixture (±)-2-exo-(2-Methylbenzyloxy)-1-methyl-4-isopropyl-7-oxabicyclo[2.2.1]heptane was used as herbicide A and formulated as emulsifiable concentrates with an active ingredient concentration of 50 g/l, 100 g/l or 750 g/l respectively.
(§5) Quinmerac (herbicide B.2) was used as a wettable powder (WP) formulation having an active ingredient concentration of 50%.
(§6) In the following experiments, the herbicidal activity for the individual herbicidal compositions (solo and mixture applications) was assessed 20 days after treatment (DAT). […]
(§7) The value E corresponds to the effect (plant damage or injury) which is to be expected if the activity of the individual compounds is additive. If the observed effect is higher than the value E calculated according to the Colby equation, a synergistic effect is present. […]

[2] = test system: Digitaria sanguinalis; assay: Greenhouse pre-emergence herbicidal activity, DIGSA
Procedure: as §1, §2, §3, §4, §5
(§8) In the following experiments, the herbicidal activity for the individual herbicidal compositions (solo and mixture applications) was assessed 20 days after treatment (DAT).
(§9) The evaluation for the damage on undesired weeds caused by the chemical compositions was carried out using a scale from 0 to 100%, compared to the untreated control plants. Here, 0 means no damage and 100 means complete destruction of the plants.
(§10) The plants used in the greenhouse experiments belonged to the following species:
(§11) where X=effect in percent using herbicide A at an application rate a; • Y=effect in percent using herbicide B at application rate b; • E=expected effect (in %) of herbicide A+ herbicide B at application rates a+b.
(§12) The value E corresponds to the effect (plant damage or injury) which is to be expected if the activity of the individual compounds is additive. If the observed effect is higher than the value E calculated according to the Colby equation, a synergistic effect is present.
(§13) Table 1 below relates to the herbicidal activity, in greenhouse trials, of the individual actives and the combinations applied at different rates and ratios, in pre-emergence application at 20 days after treatment (DAT).

[3] = test system: Setaria viridis; assay: Greenhouse pre-emergence herbicidal activity, SETVI
Procedure: as §1, §2, §3, §4, §5, §8, §9, §10, §11, §12, §13

[4] = test system: Geranium dissectum; assay: Greenhouse pre-emergence herbicidal activity, GERDI
Procedure: as §1, §2, §3, §4, §5, §8, §9, §10, §11, §12, §13

[5] = test system: Amaranthus retroflexus; assay: Greenhouse pre-emergence herbicidal activity, AMARE
Procedure: as §1, §2, §3, §4, §5, §6, §7

[6] = test system: Stellaria media; assay: Greenhouse pre-emergence herbicidal activity, STEME
Procedure: as §1, §2, §3, §4, §5, §8, §9, §10, §11, §12, §13

[7] = test system: Sorghum halepense; assay: Greenhouse pre-emergence herbicidal activity, SORHA
Procedure: as §1, §2, §3, §4, §5, §8, §9, §10, §11, §12, §13

[8] = test system: Avena fatua; assay: Greenhouse pre-emergence herbicidal activity, AVEFA
Procedure: as §1, §2, §3, §4, §5, §8, §9, §10, §11, §12, §13

[9] = test system: Lolium multiflorum; assay: Greenhouse pre-emergence herbicidal activity, LOLMU
Procedure: as §1, §2, §3, §4, §5, §8, §9, §10, §11, §12, §13

[10] = test system: Echinochloa crus-galli; assay: Greenhouse pre-emergence herbicidal activity, ECHCG
Procedure: as §1, §2, §3, §4, §5, §8, §9, §10, §11, §12, §13

[11] = test system: Polygonum convolvulus; assay: Greenhouse pre-emergence herbicidal activity, POLCO
Procedure: as §1, §2, §3, §4, §5, §8, §9, §10, §11, §12, §13

[12] = test system: Anthemis arvensis; assay: Greenhouse pre-emergence herbicidal activity, ANTAR
Procedure: as §1, §2, §3, §4, §5, §6, §7

[13] = test system: Abutilon theophrasti; assay: Greenhouse pre-emergence herbicidal activity, ABUTH
Procedure: as §1, §2, §3, §4, §5, §8, §9, §10, §11, §12, §13

[14] = test system: Alopecurus myosuroides; assay: Greenhouse pre-emergence herbicidal activity, ALOMY
Procedure: as §1, §2, §3, §4, §5, §6, §7

Measured: herbicidal activity

Cc1cnc2c(C(=O)O)c(Cl)ccc2c1 [quinmerac, 7-chloro-3-methylquinoline-8-carboxylic acid]
25%: [7]; 200 g ai/ha | [9]; 200 g ai/ha
0%: [1]; 31.25 g ai/ha | [2]; 31.25 g ai/ha | [2]; 62.5 g ai/ha | [2]; 125 g ai/ha | [2]; 250 g ai/ha | [3]; 31.25 g ai/ha | [3]; 62.5 g ai/ha | [4]; 31.25 g ai/ha | [4]; 62.5 g ai/ha | [4]; 200 g ai/ha | [5]; 250 g ai/ha | [6]; 50 g ai/ha | [6]; 100 g ai/ha | [7]; 62.5 g ai/ha | [8]; 25 g ai/ha | [8]; 50 g ai/ha | [8]; 125 g ai/ha | [8]; 250 g ai/ha | [9]; 250 g ai/ha | [10]; 31.25 g ai/ha | [10]; 62.5 g ai/ha | [11]; 100 g ai/ha | [11]; 200 g ai/ha | [12]; 250 g ai/ha | [13]; 50 g ai/ha | [13]; 200 g ai/ha | [14]; 250 g ai/ha
50%: [4]; 250 g ai/ha

(±)-2-exo-(2-Methylbenzyloxy)-1-methyl-4-isopropyl-7-oxabicyclo[2.2.1]heptane [herbicide A]
25%: [13]; 62.5 g ai/ha
40%: [6]; 125 g ai/ha
0%: [2]; 12.5 g ai/ha | [2]; 25 g ai/ha | [4]; 12.5 g ai/ha | [4]; 25 g ai/ha | [6]; 62.5 g ai/ha | [8]; 31.25 g ai/ha | [8]; 50 g ai/ha | [11]; 125 g ai/ha | [11]; 250 g ai/ha | [12]; 100 g ai/ha
90%: [2]; 100 g ai/ha | [3]; 12.5 g ai/ha
30%: [5]; 100 g ai/ha | [8]; 62.5 g ai/ha
85%: [4]; 250 g ai/ha
65%: [13]; 250 g ai/ha
70%: [1]; 12.5 g ai/ha | [2]; 50 g ai/ha | [9]; 100 g ai/ha
95%: [3]; 25 g ai/ha | [4]; 100 g ai/ha | [7]; 250 g ai/ha | [10]; 12.5 g ai/ha | [14]; 100 g ai/ha
10%: [8]; 100 g ai/ha
98%: [7]; 25 g ai/ha | [9]; 250 g ai/ha | [10]; 25 g ai/ha
